Results as given in US7691858B2, “Kinase inhibitors and methods of use thereof” (TargeGen, Inc., priority 2006, dated 2010).
“Also recorded” adds a separate entry of the source.

Legend:
GSK3 3 = biological target: T1, GSK3 3 (Homo sapiens, UniProt P49841); experiment: Kinase panel screen; type: biochemical; conditions: Compound I and ATP 10 μM
T1 construct: purchased Upstate USA or Invitrogen (commercial screening service)

GSK3a = biological target: T2, GSK3a (Homo sapiens, UniProt P49840); experiment: Kinase panel screen; type: biochemical; conditions: Compound I and ATP 10 μM
T2 construct: purchased Upstate USA or Invitrogen (commercial screening service)
T2 sequence (P49840 whole entry): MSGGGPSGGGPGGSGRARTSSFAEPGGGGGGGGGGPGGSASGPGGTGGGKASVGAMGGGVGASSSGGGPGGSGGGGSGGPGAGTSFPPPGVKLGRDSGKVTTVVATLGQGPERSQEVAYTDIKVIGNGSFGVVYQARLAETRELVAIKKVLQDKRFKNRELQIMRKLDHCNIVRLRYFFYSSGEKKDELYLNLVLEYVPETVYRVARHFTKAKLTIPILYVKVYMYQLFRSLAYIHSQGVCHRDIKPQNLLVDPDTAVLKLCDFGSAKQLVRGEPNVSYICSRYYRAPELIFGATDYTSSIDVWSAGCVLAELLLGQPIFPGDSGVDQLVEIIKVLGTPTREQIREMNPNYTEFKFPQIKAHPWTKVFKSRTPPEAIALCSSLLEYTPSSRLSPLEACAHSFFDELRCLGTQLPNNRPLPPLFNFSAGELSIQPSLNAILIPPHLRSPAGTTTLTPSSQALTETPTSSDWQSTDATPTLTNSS

ZIPK = ZIPK (Homo sapiens, UniProt O43293); experiment: Kinase panel screen; type: biochemical; conditions: Compound I and ATP 10 μM
Sequence of ZIPK (O43293 whole entry): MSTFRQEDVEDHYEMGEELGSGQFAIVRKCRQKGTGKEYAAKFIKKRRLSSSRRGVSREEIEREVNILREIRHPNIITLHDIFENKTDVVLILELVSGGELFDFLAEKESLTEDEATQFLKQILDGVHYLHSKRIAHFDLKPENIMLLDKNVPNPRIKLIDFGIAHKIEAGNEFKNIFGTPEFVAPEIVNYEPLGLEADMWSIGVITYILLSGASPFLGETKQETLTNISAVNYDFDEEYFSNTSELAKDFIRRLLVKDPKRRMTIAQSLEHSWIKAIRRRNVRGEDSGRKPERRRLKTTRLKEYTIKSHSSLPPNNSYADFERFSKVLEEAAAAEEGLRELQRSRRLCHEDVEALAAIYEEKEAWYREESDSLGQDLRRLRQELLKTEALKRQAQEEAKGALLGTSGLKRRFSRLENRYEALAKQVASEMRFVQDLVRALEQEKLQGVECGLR

CDK2 = biological target: T3, CDK2 (Homo sapiens, UniProt P24941); experiment: Kinase panel screen; type: biochemical; conditions: Compound I and ATP 10 μM
T3 construct: purchased Upstate USA or Invitrogen (commercial screening service)

CK2 = biological target: T4, CK2 (Homo sapiens, UniProt P68400); experiment: Kinase panel screen; type: biochemical; conditions: Compound I at 1 μM and ATP at the apparent Km
T4 construct: purchased Upstate USA or Invitrogen (contract screening service)
T4 sequence (P68400 whole entry): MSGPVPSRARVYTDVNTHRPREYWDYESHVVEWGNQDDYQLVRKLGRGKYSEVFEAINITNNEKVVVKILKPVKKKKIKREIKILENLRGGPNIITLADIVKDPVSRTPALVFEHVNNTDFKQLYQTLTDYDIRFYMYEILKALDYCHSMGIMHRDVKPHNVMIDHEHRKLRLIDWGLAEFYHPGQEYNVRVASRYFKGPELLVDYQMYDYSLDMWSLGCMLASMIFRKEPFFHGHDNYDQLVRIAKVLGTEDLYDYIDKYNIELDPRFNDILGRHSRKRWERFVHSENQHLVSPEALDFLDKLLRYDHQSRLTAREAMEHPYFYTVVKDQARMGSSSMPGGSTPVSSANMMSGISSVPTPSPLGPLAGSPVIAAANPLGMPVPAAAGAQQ

Ron = biological target: T5, Ron (Homo sapiens, UniProt Q04912); experiment: Kinase panel screen; type: biochemical; conditions: Compound I and ATP 10 μM
T5 construct: purchased Upstate USA or Invitrogen (commercial screening service)

MSK2 = biological target: T6, MSK2 (Homo sapiens, UniProt O75676); experiment: Kinase panel screen; type: biochemical; conditions: Compound I and ATP 10 μM
T6 construct: purchased Upstate USA or Invitrogen (contract screening service)
T6 sequence (O75676 whole entry): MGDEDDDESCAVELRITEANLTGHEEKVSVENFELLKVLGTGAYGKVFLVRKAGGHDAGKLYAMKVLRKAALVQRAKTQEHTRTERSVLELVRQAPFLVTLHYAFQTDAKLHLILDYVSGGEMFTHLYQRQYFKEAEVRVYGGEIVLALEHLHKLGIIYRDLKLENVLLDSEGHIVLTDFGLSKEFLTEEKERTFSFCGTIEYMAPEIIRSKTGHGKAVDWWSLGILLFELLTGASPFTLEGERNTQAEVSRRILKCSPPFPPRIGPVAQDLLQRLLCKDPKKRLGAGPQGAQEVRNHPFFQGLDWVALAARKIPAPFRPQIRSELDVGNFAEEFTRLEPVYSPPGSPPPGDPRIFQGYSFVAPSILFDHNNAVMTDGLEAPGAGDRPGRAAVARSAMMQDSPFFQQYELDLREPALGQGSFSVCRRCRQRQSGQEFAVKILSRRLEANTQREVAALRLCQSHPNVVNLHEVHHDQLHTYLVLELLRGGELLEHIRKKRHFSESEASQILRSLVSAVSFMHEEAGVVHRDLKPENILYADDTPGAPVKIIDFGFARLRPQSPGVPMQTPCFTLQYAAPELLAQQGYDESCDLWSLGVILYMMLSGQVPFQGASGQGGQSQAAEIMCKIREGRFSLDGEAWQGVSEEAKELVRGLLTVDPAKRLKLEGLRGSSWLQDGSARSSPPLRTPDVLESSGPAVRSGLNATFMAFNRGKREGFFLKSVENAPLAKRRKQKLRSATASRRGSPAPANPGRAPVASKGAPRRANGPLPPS

Akt phosphorylation = experiment: VEGF-induced Akt phosphorylation in vivo (lung lysates, Western blot); parameters: species or system Sprague Dawley rats; conditions: 0.5 and 5 mg/kg iv, VEGF 30, 60 or 120 min later
Method: FIG. 5. Inhibition of VEGF-induced Akt phosphorylation in vivo. […] Lungs were explanted 5 min after VEGF or saline injection, processed to tissue lysates, and lysates probed in Western blots to detect either phosphorylated Akt or total Akt (as a loading control).
The ability of compounds to impact PI3K activity in vivo was assessed by examining compound influence on vascular endothelial growth factor (VEGF)-induced Akt kinase phosphorylation (VEGF stimulation being an inducer of PI3K activity, and Akt kinase being a direct target of PI3K). Sprague Dawley rats were first injected intravenously (iv) with either vehicle or test compound at 5 mg/kg, and then 30, 60 or 120 min later injected iv with VEGF. Five minutes later, lungs were harvested and used to generate tissue lysates, which were then probed for phosphorylated Akt using Western blot technology; non-phosphorylated Akt was also probed in the same blots as a loading control. In other studies, test compounds was dosed at either 0.5 or 5 mg/kg, and VEGF delivered 60 min later, in order to assess the dose-response relationship of a compound's activities. […]

MAPKAP-K2 = biological target: T7, MAPKAP-K2 (Homo sapiens, UniProt P49137); experiment: Kinase panel screen; type: biochemical; conditions: Compound I and ATP 10 μM
T7 construct: purchased Upstate USA or Invitrogen (commercial screening service)

CHK2 = biological target: T8, CHK2 (Homo sapiens, UniProt O96017); experiment: Kinase panel screen; type: biochemical; conditions: Compound I and ATP 10 μM
T8 construct: purchased Upstate USA or Invitrogen (contract screening service)

CaMKII = experiment: Kinase panel screen; type: biochemical, rat; conditions: Compound I and ATP 10 μM
MAPK2 = biological target: T9, MAPK2 (Homo sapiens, UniProt P28482); experiment: Kinase panel screen; type: biochemical; conditions: Compound I and ATP 10 μM
T9 construct: purchased Upstate USA or Invitrogen (commercial screening service)

cRaf = biological target: T10, cRaf (Homo sapiens, UniProt P04049); experiment: Kinase panel screen; type: biochemical; conditions: Compound I at 1 μM and ATP at the apparent Km
T10 construct: purchased Upstate USA or Invitrogen (commercial screening service)
T10 sequence (P04049 whole entry): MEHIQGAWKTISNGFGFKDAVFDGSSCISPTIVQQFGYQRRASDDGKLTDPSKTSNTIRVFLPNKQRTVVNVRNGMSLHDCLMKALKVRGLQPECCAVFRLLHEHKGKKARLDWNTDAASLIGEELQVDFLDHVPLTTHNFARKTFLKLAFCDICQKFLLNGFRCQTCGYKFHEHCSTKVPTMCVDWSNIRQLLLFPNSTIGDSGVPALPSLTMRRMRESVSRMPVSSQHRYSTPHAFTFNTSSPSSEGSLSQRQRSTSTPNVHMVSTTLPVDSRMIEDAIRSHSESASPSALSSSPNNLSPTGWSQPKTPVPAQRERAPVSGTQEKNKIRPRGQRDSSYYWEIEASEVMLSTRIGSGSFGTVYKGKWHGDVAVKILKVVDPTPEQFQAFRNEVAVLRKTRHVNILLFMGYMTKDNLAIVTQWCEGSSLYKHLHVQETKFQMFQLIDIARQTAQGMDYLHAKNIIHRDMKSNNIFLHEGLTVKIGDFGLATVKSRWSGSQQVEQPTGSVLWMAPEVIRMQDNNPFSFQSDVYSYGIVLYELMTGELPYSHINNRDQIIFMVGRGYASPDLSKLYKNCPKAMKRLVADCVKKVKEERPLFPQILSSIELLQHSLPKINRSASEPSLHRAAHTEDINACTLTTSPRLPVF

Akt1 = biological target: T11, Akt1 (Homo sapiens, UniProt P31749); experiment: Kinase panel screen; type: biochemical; conditions: Compound I at 1 μM and ATP at the apparent Km
T11 construct: purchased Upstate USA or Invitrogen (commercial screening service)
T11 sequence (P31749 whole entry): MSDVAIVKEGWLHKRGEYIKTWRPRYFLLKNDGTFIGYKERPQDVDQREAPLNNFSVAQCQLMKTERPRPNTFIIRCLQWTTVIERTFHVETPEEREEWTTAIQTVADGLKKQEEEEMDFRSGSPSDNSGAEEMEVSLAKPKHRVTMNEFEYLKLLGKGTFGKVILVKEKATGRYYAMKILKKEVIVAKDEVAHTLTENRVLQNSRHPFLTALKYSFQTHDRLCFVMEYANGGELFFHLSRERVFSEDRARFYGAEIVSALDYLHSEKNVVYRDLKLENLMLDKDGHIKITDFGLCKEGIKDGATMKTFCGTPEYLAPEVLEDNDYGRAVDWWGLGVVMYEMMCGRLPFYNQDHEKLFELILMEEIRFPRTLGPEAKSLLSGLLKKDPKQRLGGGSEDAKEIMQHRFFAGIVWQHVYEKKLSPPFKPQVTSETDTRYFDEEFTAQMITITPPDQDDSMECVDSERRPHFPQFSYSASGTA

ErbB4 = biological target: T12, ErbB4 (Homo sapiens, UniProt Q15303); experiment: Kinase panel screen; type: biochemical; conditions: Compound I and ATP 10 μM
T12 construct: purchased Upstate USA or Invitrogen (commercial screening service)

EGFR = EGFR (Homo sapiens, UniProt P00533); experiment: Kinase panel screen; type: biochemical; conditions: Compound I and ATP 10 μM
[1] = tested on: PAF-induced inflammatory edema; experiment: Rat hindpaw inflammation model, PAF; type: in vivo, Sprague Dawley rats
Method: FIG. 4. Inhibition of edema and inflammation. (a, b) Rats were injected i.v. with Evans blue dye and then intradermally with saline, VEGF or histamine. […] (c-f) Rat hindpaws were injected with either PAF (c & d) or dextran (e & f), and three hours later processed as H&E-stained paraffin sections. […] Images were taken of paws representing the mean group value for volume as presented in Results (original magnification 200×).
The Miles assay models a primarily endothelial-based response that develops rapidly (within minutes). As a comparator, we next employed a rodent hindpaw model where more complex inflammatory reactions develop over several hours. Agonists included PAF, a GPCR ligand that activates both EC and leukocytes, and dextran, a phagocytic stimulus for mast cell and leukocyte activation. […] Paw volume (a more quantitative measure of edema and inflammation) was reduced by 62% and 78% in response to PAF or dextran, respectively (n=8, P<0.001). Finally, to correlate these in vivo responses with the molecular target of interest, we monitored PI3K pathway signaling through Western blot analyses of Akt phosphorylation (a PI3K-mediated event).
In order to determine the influence of compounds on the development of inflammation, Sprague Dawley rats were first injected intravenously with either vehicle or test compound at 5 mg/kg, and then 30 min later either PBS (as a control), dextran or platelet activating factor (PAF) was injected into the plantar surface of the hindlimbs, dextran and PAF being known to induce localized inflammatory responses marked by edema. Three hours later, paw dimensions were measured using a caliper and paw volumes calculated; data are shown as the increase in paw volume (mm^3) as compared to controls (paws injected with PBS).

Flt1 = biological target: T13, Flt1 (Homo sapiens, UniProt P17948); experiment: Kinase panel screen; type: biochemical; conditions: Compound I and ATP 10 μM
T13 construct: purchased Upstate USA or Invitrogen (commercial screening service)
T13 sequence (P17948 27-1338): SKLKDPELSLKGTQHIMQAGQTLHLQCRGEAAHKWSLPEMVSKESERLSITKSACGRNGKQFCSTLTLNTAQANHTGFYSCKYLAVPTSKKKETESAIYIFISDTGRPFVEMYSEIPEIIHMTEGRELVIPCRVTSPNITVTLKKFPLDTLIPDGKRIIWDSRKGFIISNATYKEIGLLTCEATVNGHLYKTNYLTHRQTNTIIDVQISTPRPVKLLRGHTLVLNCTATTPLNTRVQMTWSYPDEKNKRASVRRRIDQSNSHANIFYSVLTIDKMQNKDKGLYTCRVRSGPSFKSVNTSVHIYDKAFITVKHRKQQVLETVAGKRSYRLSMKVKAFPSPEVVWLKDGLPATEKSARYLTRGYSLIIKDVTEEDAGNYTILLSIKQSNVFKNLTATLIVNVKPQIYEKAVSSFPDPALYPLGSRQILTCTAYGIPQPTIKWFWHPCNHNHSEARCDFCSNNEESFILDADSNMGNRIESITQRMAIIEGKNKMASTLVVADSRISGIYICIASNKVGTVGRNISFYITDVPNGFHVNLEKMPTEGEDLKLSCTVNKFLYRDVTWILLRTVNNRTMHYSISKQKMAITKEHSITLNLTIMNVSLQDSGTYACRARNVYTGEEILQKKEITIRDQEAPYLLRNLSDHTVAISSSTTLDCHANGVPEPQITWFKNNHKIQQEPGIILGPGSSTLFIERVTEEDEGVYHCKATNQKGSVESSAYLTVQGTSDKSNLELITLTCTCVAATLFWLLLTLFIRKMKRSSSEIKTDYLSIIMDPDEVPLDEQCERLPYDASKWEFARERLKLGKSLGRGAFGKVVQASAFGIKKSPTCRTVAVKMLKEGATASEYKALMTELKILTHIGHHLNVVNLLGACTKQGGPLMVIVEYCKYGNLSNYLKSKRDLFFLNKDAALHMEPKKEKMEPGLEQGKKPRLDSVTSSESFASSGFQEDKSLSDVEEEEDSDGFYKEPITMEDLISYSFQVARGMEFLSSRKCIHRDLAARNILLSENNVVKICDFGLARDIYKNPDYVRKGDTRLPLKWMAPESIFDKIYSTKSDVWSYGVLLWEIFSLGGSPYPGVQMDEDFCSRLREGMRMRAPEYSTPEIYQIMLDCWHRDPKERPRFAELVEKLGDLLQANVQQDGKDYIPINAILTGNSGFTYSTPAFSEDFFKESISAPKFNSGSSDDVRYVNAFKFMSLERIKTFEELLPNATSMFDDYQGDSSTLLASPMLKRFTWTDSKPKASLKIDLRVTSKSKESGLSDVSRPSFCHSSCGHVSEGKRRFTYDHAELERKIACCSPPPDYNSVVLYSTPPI

Bmx = biological target: T14, Bmx (Homo sapiens, UniProt P51813); experiment: Kinase panel screen; type: biochemical; conditions: Compound I and ATP 10 μM
T14 construct: purchased Upstate USA or Invitrogen (commercial screening service)

Syk = biological target: T15, Syk (Homo sapiens, UniProt P43405); experiment: Kinase panel screen; type: biochemical; conditions: Compound I and ATP 10 μM
T15 construct: purchased Upstate USA or Invitrogen (contract screening service)

T1 sequence (P49841 whole entry): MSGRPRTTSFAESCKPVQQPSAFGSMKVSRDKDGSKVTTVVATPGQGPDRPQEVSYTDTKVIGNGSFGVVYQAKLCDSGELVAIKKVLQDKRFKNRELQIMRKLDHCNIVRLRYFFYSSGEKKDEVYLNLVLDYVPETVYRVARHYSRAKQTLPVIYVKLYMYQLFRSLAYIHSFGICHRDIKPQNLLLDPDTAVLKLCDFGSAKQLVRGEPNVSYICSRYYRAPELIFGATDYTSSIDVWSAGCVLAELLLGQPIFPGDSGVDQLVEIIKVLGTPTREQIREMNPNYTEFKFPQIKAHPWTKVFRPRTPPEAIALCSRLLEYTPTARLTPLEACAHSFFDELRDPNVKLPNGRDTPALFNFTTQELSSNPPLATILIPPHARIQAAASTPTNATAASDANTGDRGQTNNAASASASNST

Nc1nc(N)c2nc(-c3cccc(O)c3)c(-c3cccc(O)c3)nc2n1 [Compound I, 6,7-bis-(3-hydroxyphenyl)-pteridine-2,4-diamine]
Percent Control, GSK3 3 (GSK3 3): p70S6K Percent
Percent Control, GSK3a (GSK3a): 62%
Percent Control, ZIPK (ZIPK): 112%
Percent Control, CDK2 (first entry) (CDK2): 67%
Percent Control, CK2* (CK2): 96%
Percent Control, Ron (Ron): 71%
Percent Control, MSK2 (MSK2): 100%
VEGF-induced Akt phosphorylation in lung lysates (Akt phosphorylation): blocked
VEGF-induced Akt phosphorylation in lung lysates (Akt phosphorylation; listed as 6,7-bis-(3-hydroxyphenyl)-pteridine-2,4-diamine): Inhibition
Percent Control, MAPKAP-K2 (MAPKAP-K2): 107%
Percent Control, CHK2 (CHK2): 75%
Percent Control, CaMKII (r) (CaMKII): 90%
Percent Control, MAPK2 (MAPK2): 84%
Percent Control, cRaf* (cRaf): 98%
Percent Control, Akt1* (Akt1): 96%
Percent Control, ErbB4 (ErbB4): 40%
Percent Control, EGFR (EGFR): 99%
Increase in Paw Volume vs. Controls ([1]; 5 mg/kg iv 30 min before, 3 hours, mean±SEM N=6, vehicle 71 ± 9): 27 ± 4 mm^3
edema and leukocyte infiltration (histology) ([1]; 5 mg/kg pretreatment, three hours): strongly antagonized; also recorded: blocked
reduction of paw volume ([1]; n=8): 62%
Percent Control, Flt1 (Flt1): 62%
Percent Control, Bmx (Bmx): 58%
Percent Control, Syk (Syk): 76%
